Reference: patent US10344019B2 (priority 2010, dated 2019)

Experiments:
Type in all cases: cell-based
[1] = test system: HCV 1a RLuc cells (dicistronic genotype 1a H77 replicon, RLuc reporter); test: microbe, parasite or virus in culture; details: Hepatitis C virus, genotype 1a H77 RLuc replicon; read-out: 1a
Procedure, shortened: (§1)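 Renilla luciferase HCV replicon cells: dicistronic 1b Con1, 1a H77 or 2a JFH-1 replicons, or a JFH-1 chimera carrying J6 NS5A (M31 present). Compound in DMSO serial dilutions, 72 h incubation, then lysis and luciferase read. EC50 by non-linear regression.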

[2] = test system: HCV 1b RLuc cells (dicistronic genotype 1b Con1 replicon, RLuc reporter); test: microbe, parasite or virus in culture; details: Hepatitis C virus, read-out: 1b (nM)
Procedure, shortened: as §1

[3] = test system: HCV 2a JFH-1 Rluc cells (dicistronic genotype 2a JFH-1 replicon, RLuc reporter); test: microbe, parasite or virus in culture; details: Hepatitis C virus, genotype 2a JFH-1 RLuc replicon; read-out: 2a JFH
Procedure, shortened: as §1

[4] = test system: HCV 2b Rluc cells (NS5A chimeric genotype 2a JFH-1 replicon with genotype 2b MD2b-1 NS5A gene, M31 present); test: microbe, parasite or virus in culture; details: Hepatitis C virus, read-out: 2b
Procedure, shortened: (§2)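 Replicon cells stably carrying the listed RLuc-encoding dicistronic replicons were seeded and treated with DMSO serial dilutions of compound (10 mM stocks) diluted into culture medium. After 72 h, cells were lysed and Renilla luciferase activity measured. EC50 was derived by non-linear regression.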

[5] = test system: HCV 4a Rluc cells (NS5A chimeric genotype 1b Con1 replicon with genotype 4a NS5A gene); test: microbe, parasite or virus in culture; details: Hepatitis C virus, read-out: 4a
Procedure, shortened: as §2

[6] = test system: HCV 2a Rluc cells (NS5A chimeric genotype 2a JFH-1 replicon with genotype 2a J6 strain NS5A gene, M31 present); test: HCV replicon reporter assay, genotype 2a J6 (M31 present); details: Hepatitis C virus, read-out: 2a J6
Procedure, shortened: as §1

[7] = test system: HCV 3a RLuc cells (NS5A chimeric genotype 1b Con1 replicon with consensus genotype 3a NS5A gene); test: microbe, parasite or virus in culture; details: Hepatitis C virus, read-out: 3a, genotype 3a NS5A chimeric replicon
Procedure, shortened: as §2

SMILES | EC50 [1] [nM] | EC50 [2] [nM] | EC50 [3] [nM] | EC50 [4] [nM] | EC50 [5] [nM] | EC50 [6] [nM] | EC50 [7] [nM]
COC(=O)N[C@H](C(=O)N1CCC[C@H]1c1nc2ccc3cc(-c4ccc5c(ccc6nc([C@@H]7C[C@H](SC)CN7C(=O)[C@H](NC(=O)OC)c7ccccc7)[nH]c65)c4)ccc3c2[nH]1)C(C)C [Example 535] | 0.001 to 0.999 | 0.022 | 0.001 to 0.999 | 0.001 to 0.999 | 0.001 to 0.99 | 0.001 to 0.999 | 
CC[C@H](C)[C@H](NC(=O)OC)C(=O)N1C[C@@H](COC)C[C@H]1c1ncc(-c2ccc3c(c2)COc2cc4c(ccc5nc([C@@H]6C[C@H](COC)CN6C(=O)[C@@H](NC(=O)OC)[C@@H](C)CC)[nH]c54)cc2-3)[nH]1 [Example 580] | 0.001 to 0.999 |  | 0.001 to 0.999 | 0.001 to 0.999 | 0.001 to 0.99 | 0.001 to 0.999 | 0.001 to 0.99
COC[C@H]1C[C@@H](c2nc3ccc4cc5c(cc4c3[nH]2)OCc2cc(-c3ccc4nc([C@@H]6CCCN6C(=O)[C@@H](NC(=O)OC)C(C)C)[nH]c4c3)ccc2-5)N(C(=O)[C@@H](NC(=O)OC)C(C)C)C1 [Example 563] | 0.001 to 0.999 | 0.007 | 0.001 to 0.999 | > 44 | 0.001 to 0.99 | > 44 | 
COC[C@H]1C[C@@H](c2ncc(-c3ccc(-c4ccc(-c5cnc([C@@H]6C[C@H](C)CN6C(=O)[C@H](NC(=O)C6CC6)c6ccccc6)[nH]5)cc4)cc3)[nH]2)N(C(=O)[C@@H](NC(=O)OC)C(C)C)C1 [Example 557] | 0.001 to 0.999 | 0.028 | 0.001 to 0.999 | 0.001 to 0.999 | 0.001 to 0.99 | 0.001 to 0.999 | 
COC[C@H]1C[C@@H](c2ncc(-c3ccc(-c4ccc(-c5cnc([C@@H]6C[C@H]7C[C@H]7N6C(=O)[C@H](NC(=O)C6CC6)c6ccccc6)[nH]5)cc4)cc3)[nH]2)N(C(=O)[C@@H](NC(=O)OC)C(C)C)C1 [Example 519] | 0.001 to 0.999 | 0.01 | 0.001 to 0.999 | 0.001 to 0.999 | 0.001 to 0.99 | 0.001 to 0.999 | 
COC[C@H]1C[C@@H](c2nc3ccc4cc(-c5ccc6c(ccc7nc([C@@H]8C[C@H](C)CN8C(=O)[C@@H](NC(=O)OC)C(C)C)[nH]c76)c5)ccc4c3[nH]2)N(C(=O)[C@H](NC(=O)C2CCC2)c2ccccc2)C1 [Example 541] | 0.001 to 0.999 | 0.034 | 0.001 to 0.999 | 0.001 to 0.999 | 0.001 to 0.99 | 0.001 to 0.999 | 
COC[C@H]1C[C@@H](c2nc3ccc4cc(-c5ccc6c(ccc7nc([C@@H]8C[C@H]9C[C@H]9N8C(=O)[C@@H](NC(=O)OC)C(C)(C)C)[nH]c76)c5)ccc4c3[nH]2)N(C(=O)[C@H](NC(=O)OC)c2ccccc2)C1 [Example 530] | 0.001 to 0.999 | 0.011 | 0.001 to 0.999 | 0.001 to 0.999 | 0.001 to 0.99 | 0.001 to 0.999 | 
COC(=O)N[C@H](C(=O)N1CCC[C@H]1c1ncc(-c2cc3c4c(c2)OCc2cc(-c5cnc([C@@H]6CCCN6C(=O)[C@H](NC(=O)c6ccccn6)c6ccccc6)[nH]5)cc(c2-4)OC3)[nH]1)C(C)C [Example 522] | 0.001 to 0.999 | 0.023 | 0.001 to 0.999 | 0.001 to 0.999 | 0.001 to 0.99 | > 44 | 
COC(=O)N[C@H](C(=O)N1CCC[C@H]1c1ncc(-c2cc3c4c(c2)OCc2cc(-c5cnc([C@@H]6CCCN6C(=O)[C@H](NC(=O)C6CCC6)c6ccccc6)[nH]5)cc(c2-4)OC3)[nH]1)C(C)C [Example 521] | 0.001 to 0.999 | 0.028 | 0.001 to 0.999 | 0.001 to 0.999 | 0.001 to 0.99 | 0.001 to 0.999 | 
COC(=O)N[C@H](C(=O)N1CCC[C@H]1c1nc2ccc3cc(-c4ccc5c(ccc6nc([C@@H]7C[C@H](COC(F)F)CN7C(=O)[C@H](NC(=O)OC)c7ccccc7)[nH]c65)c4)ccc3c2[nH]1)C(C)C [Example 528] | 0.001 to 0.999 | 0.01 | 0.001 to 0.999 | 0.001 to 0.999 | 0.001 to 0.99 | 0.001 to 0.999 | 
COC[C@H]1C[C@@H](c2nc3ccc4cc(-c5ccc(-c6cnc([C@@H]7CCCN7C(=O)[C@@H](NC(=O)OC)C(C)C)[nH]6)cc5)ccc4c3[nH]2)N(C(=O)[C@H](NC(=O)C2CCC2)c2ccccc2)C1 [Example 533] | 0.001 to 0.999 | 0.012 | 0.001 to 0.999 | 0.001 to 0.999 | 0.001 to 0.99 | 0.001 to 0.999 | 
COC(=O)N[C@H](C(=O)N1CCC[C@H]1c1ncc(-c2cc3c4c(c2)OCc2cc(-c5cnc([C@@H]6CCCN6C(=O)[C@H](NC(=O)C6CC6)c6ccccc6)[nH]5)cc(c2-4)OC3)[nH]1)C(C)C [Example 520] | 0.001 to 0.999 | 0.033 | 0.001 to 0.999 | 0.001 to 0.999 | 0.001 to 0.99 | 0.001 to 0.999 | 
COC[C@H]1C[C@@H](c2nc3ccc4cc(-c5ccc6c(ccc7nc([C@@H]8CCCN8C(=O)[C@@H](NC(=O)OC)C(C)C)[nH]c76)c5)ccc4c3[nH]2)N(C(=O)[C@H](NC(=O)C2CCC2)c2ccccc2)C1 [Example 537] | 0.001 to 0.999 | 0.014 | 0.001 to 0.999 | 0.001 to 0.999 | 0.001 to 0.99 | 0.001 to 0.999 | 
COC[C@H]1C[C@@H](c2nc3ccc4cc5c(cc4c3[nH]2)OCc2cc(-c3ccc4nc([C@@H]6CCCN6C(=O)[C@@H](NC(=O)OC)C(C)C)[nH]c4c3)ccc2-5)N(C(=O)[C@H](NC(=O)OC)c2ccccc2)C1 [Example 556] | 0.001 to 0.999 |  | 0.001 to 0.999 | > 44 | 0.001 to 0.99 | > 44 | 
COC[C@H]1C[C@@H](c2nc3ccc4cc(-c5ccc6c(ccc7nc([C@@H]8C[C@H](C)CN8C(=O)[C@@H](NC(=O)OC)C(C)C)[nH]c76)c5)ccc4c3[nH]2)N(C(=O)[C@H](NC(=O)C2CC(F)(F)C2)c2ccccc2)C1 [Example 542] | 0.001 to 0.999 | 0.05 | 0.001 to 0.999 | 0.001 to 0.999 | 0.001 to 0.99 | 0.001 to 0.999 | 
COC[C@H]1C[C@@H](c2nc3ccc4cc(-c5ccc(-c6[nH]c([C@@H]7CCCN7C(=O)[C@@H](NC(=O)OC)C(C)C)nc6C)cc5)ccc4c3[nH]2)N(C(=O)[C@@H](NC(=O)OC)C(C)C)C1 [Example 524] | 0.001 to 0.999 | 0.02 | 0.001 to 0.999 | 1 to 44 | 0.001 to 0.99 | > 44 | 
COC[C@H]1C[C@@H](c2nc3ccc4cc(-c5ccc6c(ccc7nc([C@@H]8C[C@H]9C[C@H]9N8C(=O)[C@@H](NC(=O)OC)C(C)(C)C)[nH]c76)c5)ccc4c3[nH]2)N(C(=O)[C@H](NC(=O)C2CC2)c2ccccc2)C1 [Example 532] | 0.001 to 0.999 | 0.009 | 0.001 to 0.999 | 0.001 to 0.999 | 0.001 to 0.99 | 0.001 to 0.999 | 
CC[C@H](C)[C@H](NC(=O)OC)C(=O)N1CCC[C@H]1c1ncc(-c2ccc(-c3ccc4c(ccc5nc([C@@H]6C[C@H](COC)CN6C(=O)[C@H](NC(=O)C6CC6)c6ccccc6)[nH]c54)c3)cc2)[nH]1 [Example 534] | 0.001 to 0.999 | 0.011 | 0.001 to 0.999 | 0.001 to 0.999 | 0.001 to 0.99 | 0.001 to 0.999 | 
CC[C@H](C)[C@H](NC(=O)OC)C(=O)N1[C@@H](C)CC[C@H]1c1ncc(-c2ccc3c(c2)COc2cc4c(ccc5nc([C@@H]6C[C@H](COC)CN6C(=O)[C@@H](NC(=O)OC)C(C)C)[nH]c54)cc2-3)[nH]1 [Example 638] | 0.001 to 0.999 | 0.009 | 0.001 to 0.999 | 0.001 to 0.999 |  | 0.001 to 0.999 | 
COC(=O)N[C@H](C(=O)N1C[C@@H](COC(F)F)C[C@H]1c1nc2ccc3cc4c(cc3c2[nH]1)OCc1cc(-c2cnc([C@@H]3CC[C@H](C)N3C(=O)[C@@H](NC(=O)OC)C(C)C)[nH]2)ccc1-4)C(C)C [Example 631] | 0.001 to 0.999 | 0.006 | 0.001 to 0.999 | 0.001 to 0.999 |  | 0.001 to 0.999 | > 5
CC[C@H](C)[C@H](NC(=O)OC)C(=O)N1C[C@@H](COC)C[C@H]1c1nc2ccc3cc4c(cc3c2[nH]1)OCc1cc(-c2cnc([C@@H]3CC[C@H](C)N3C(=O)[C@@H](NC(=O)OC)C(C)C)[nH]2)ccc1-4 [Example 623] | 0.001 to 0.999 | 0.006 | 0.001 to 0.999 | 0.001 to 0.999 |  | 0.001 to 0.999 | 
CC[C@H](C)[C@H](NC(=O)OC)C(=O)N1[C@@H]2C[C@@H]2C[C@H]1c1nc2ccc3cc(-c4ccc5c(ccc6nc([C@@H]7C[C@H](COC)CN7C(=O)[C@H](NC(=O)OC)c7ccccc7)[nH]c65)c4)ccc3c2[nH]1 [Example 529] | 0.001 to 0.999 | 0.013 | 0.001 to 0.999 | 0.001 to 0.999 | 0.001 to 0.99 | 0.001 to 0.999 | 
CC[C@H](C)[C@H](NC(=O)OC)C(=O)N1[C@@H]2C[C@@H]2C[C@H]1c1nc2ccc3cc(-c4ccc5c(ccc6nc([C@@H]7C[C@H](COC)CN7C(=O)[C@H](NC(=O)C7CC7)c7ccccc7)[nH]c65)c4)ccc3c2[nH]1 [Example 531] | 0.001 to 0.999 | 0.018 | 0.001 to 0.999 | 0.001 to 0.999 | 0.001 to 0.99 | 0.001 to 0.999 | 
